In ChEMBL document CHEMBL3217579, “Prodrug ionic liquids: functionalizing neutral active pharmaceutical ingredients to take advantage of the ionic liquid form” (Medchemcomm, 2013):

Tests used:
[1] = Prodrug conversion in PBS buffer assessed as acetominophen formation at pH 7.4 after 210 mins; assay type: physicochemical; conditions: pH 7.4, 3.5 h
[2] = Prodrug conversion in simulated intestinal fluid assessed as acetominophen formation at pH 6.8 after 210 mins; assay type: ADME; conditions: simulated gi fluid, pH 6.8, 3.5 h
[3] = Prodrug conversion in simulated gastric fluid assessed as acetominophen formation at pH 1.2 after 210 mins; assay type: ADME, Stomach; conditions: simulated gi fluid, pH 1.2, 3.5 h

- Drug metabolism [1]: Active
- Drug metabolism [2]: Active
- Drug metabolism [3]: Active
Structure (SMILES): CC(=O)Nc1ccc(OC(=O)Cn2cc[n+](C)c2)cc1.[Cl-]
